Data taken from patent publication US12410124B2 (priority 2019, dated 2025).
Like-named read-outs stand apart in the source and are kept apart here.

Experiments:
[1] = system: fetal rat midbrain neurons; assay: Survival rate of primary midbrain neurons induced by MPP+ (CCK-8); type: cell-based; conditions: for viability at 5 µM / viability at 10 µM / viability at 20 µM: Rattus norvegicus, Neuron, read-out: Survival rate (%); for survival rate compared with the styryl sulfone prototype compounds: no concentration stated
Description: The main pathological feature of Parkinson's disease (PD) lies in the degeneration and loss of dopaminergic neuron in the substantia nigra-striatum of the midbrain. 1-Methyl-4-phenylpyridinium (MPP+) has a high affinity to dopamine carriers and a selective toxicity on dopaminergic neurons. Thus, MPP+ is one of the most ideal classic neurotoxins for establishing PD cell models. The primary cell culture of fetal rat midbrain is often used to establish PD cell models in recent years. Although it is more cumbersome and has higher technical requirements than cell line culture, it is closer to the pathological characteristics of PD. Thus, a PD cell model is established using neurons from the primary cell culture of fetal rat midbrain under MPP+ induction, to evaluate the protective effect of target compounds on the model neurons.
The midbrain was separated from a fetal rat of a 15-day-pregnant SD rat and cut into pieces, then subjected to trypsin digestion, pipetting, screen filtration, and resuspension steps, and inoculated in a 24-well cell culture plate pre-coated with poly-D-lysine. 12 hours after culture, cytarabine was added to inhibit the growth of glial cells. On the 5th day of neuron growth, the toxin MPP+ can be added to make a PD cell model. When detecting the activity of a target compound, the target compound was pre-incubated with midbrain neurons for 3 h, then MPP+ was added, and after 48 h co-incubation the neuronal viability was detected by CCK-8 method and the neuronal survival rate was calculated to evaluate the inhibitory activity of the target compound on the midbrain neuronal PD damage. The experiment included blank control group, MPP+ model group, positive control group (caffeic acid phenethyl ester, CAPE), prototype control group (styryl sulfone compounds 3B, 3C, 3D, and 3G), and target compound group (prepared according to Examples 1-22 in the invention).

substantia nigra p-α-s = assay: Substantia nigra p-α-s protein expression in MPTP Parkinson's disease model mouse (immunofluorescence); type: in vivo; conditions: percentage of mean intensity of blank control group, gavage 21 days after MPTP modeling
Protocol: (§1) Neurotoxins can be used to establish PD animal models. Currently, 1-methyl-4-phenyl-1,2,3,6-tetrahydropyridine (MPTP) is the sole synthetic toxin which is recognized to induce PD symptoms in human and non-human primates and in mice. Using MPTP subacute modeling method, C57BL/6J male mice were intraperitoneally injected with MPTP 30 mg/kg, once a day for 5 consecutive days. The experiment animals were divided into blank control group, MPTP model group, and compound treatment group. For the […] compound treatment group, the compound was administrated by gavage for 21 consecutive days after the completion of modeling; for the MPTP model group, the normal saline was administrated by gavage for 21 consecutive days after the completion of modeling; and for the blank control group, the normal saline was first intraperitoneally injected for 5 days, and then administrated by gavage for 21 days.
Alpha-synuclein is an “unfolded protein” in its natural state. It exists in a monomeric form, and participates in the physiological functions such as the release of neurotransmitters, the establishment of synaptic junctions, and the regulation of synaptic plasticity. Under pathological conditions, more than 90% of alpha-synuclein is phosphorylated at serine of position 129 and converted into phosphorylated alpha-synuclein (p-α-s), thereby forming Lewy bodies. The formation of Lewy bodies is one of the main pathological manifestations and pathological mechanisms for Parkinson's disease, and plays an important role in the formation and development of PD. The detection of the p-α-s expression in the midbrain and substantia nigra of PD model mice can evaluate the neuroprotective activity of the compound.
Half of experiment mice in each group were taken to separate the midbrain after perfusion and fixation. The tissue was trimmed, and the substantia nigra-striatum area was taken to prepare paraffin sections. The p-α-s immunofluorescence staining was performed in the brain sections of mice in each group. […] The experiment included blank control group, MPTP model group, positive control group (caffeic acid phenethyl ester, CAPE), prototype control group (styryl sulfone compounds 3B, 3C, 3D, and 3G, whose structures are shown as above), and target compound group.

substantia nigra GFAP = assay: Number of substantia nigra astrocytes with GFAP positive expression in MPTP Parkinson's disease model mouse (immunohistochemistry); type: in vivo; conditions: for Positive cell number (astrocytes with GFAP positive expression): substantia nigra, MPTP Parkinson's disease model mouse, immunohistochemistry
Protocol: as §1
(§2) Neuron-glial cell network homeostasis disorder is an important factor for the selective and progressive death of substantia nigra dopaminergic neurons in PD. In the neurotoxic effect of MPTP, the excessive activations of microglial cells and astrocytes produce a variety of inflammatory cytokines and reactive oxygen species (ROS). These inflammatory factors and ROS amplify their respective toxicities and mediate malignant feedback loop, causing a cascade inflammation response and aggravating the pathological process of PD. CD11b and GFAP are the marker proteins for activations of microglial cells and astrocytes, respectively. Therefore, the effect of the target compounds on the activations of the microglial cells and astrocytes in the substantia nigra, hippocampus, and midbrain areas of MPTP-induced PD mice can be investigated, to explore the mechanism of the anti-PD effect of the target compounds by inhibiting the neuroinflammation.
(§3) Half of experiment mice in each group were taken to separate the midbrain after perfusion and fixation. The tissue was trimmed, and the substantia nigra area was taken to prepare paraffin sections. The GFAP immunohistochemical staining was performed for the statistics of the change in the number of astrocytes with GFAP positive expression. The experiment included blank control group, MPTP model group, positive control group (caffeic acid phenethyl ester, CAPE), prototype control group (styryl sulfone compounds 3B, 3C, 3D, and 3G, whose structures are shown as above), and target compound group.

substantia nigra TH = assay: Substantia nigra TH expression in MPTP Parkinson's disease model mouse (immunofluorescence); type: in vivo; conditions: percentage of mean intensity of blank control group, gavage 21 days after MPTP modeling
Protocol: as §1
The main cause of PD lies in the pathological changes in the substantia nigra-striatum projection system of the brain and the progressive degeneration and loss of dopaminergic neurons. Tyrosine hydroxylase (TH) is the first enzyme in the biosynthesis of catecholamine neurotransmitters, as well as the first rate-limiting enzyme in the dopamine synthesis. It plays an important role in the synthesis and metabolism of the neurotransmitter DA. The TH in PD animal models and patients has a wide range of abnormal changes, from the gene expression to the enzyme protein content and enzyme activity. The detection of the TH expression in the midbrain and substantia nigra of PD model mice can be used to evaluate the neuroprotective activity of the compound.
Half of experiment mice in each group were taken to separate the midbrain after perfusion and fixation. The tissue was trimmed, and the substantia nigra-striatum area was taken to prepare paraffin sections. The TH immunofluorescence staining was performed in the brain sections of mice in each group. […] The experiment included blank control group, MPTP model group, positive control group (caffeic acid phenethyl ester, CAPE), prototype control group (styryl sulfone compounds 3B, 3C, 3D, and 3G, whose structures are shown as above), and target compound group.

hippocampus CD11b = assay: Number of hippocampus microglial cells with CD11b positive expression in MPTP Parkinson's disease model mouse (immunohistochemistry); type: in vivo; conditions: for Positive cell number (microglial cells with CD11b positive expression): hippocampus, MPTP Parkinson's disease model mouse, immunohistochemistry
Protocol: as §1, §2
as §3, with “hippocampus” for “substantia nigra”, “CD11b” for “GFAP”, “microglial cells” for “astrocytes”

[2] = 5 μM, 3 h pre-incubation, 48 h with MPP+
[3] = 10 μM, 3 h pre-incubation, 48 h with MPP+
[4] = 20 μM, 3 h pre-incubation, 48 h with MPP+

SMILES | viability at 5 µM ([1]; 48 h) [%] | viability at 10 µM ([1]; 48 h) [%] | viability at 20 µM ([1]; 48 h) [%] | Expression (Immunofluorescence intensity %) (substantia nigra p-α-s) [%] | Positive cell number (astrocytes with GFAP positive expression) (substantia nigra GFAP) | Expression (Immunofluorescence intensity %) (substantia nigra TH) [%] | Positive cell number (microglial cells with CD11b positive expression) (hippocampus CD11b) | viability at 5 µM [1, 2] [%] | viability at 10 µM [1, 3] [%] | viability at 20 µM [1, 4] [%] | survival rate compared with the styryl sulfone prototype compounds [1] | number of substantia nigra astrocytes with GFAP positive expression compared with the styryl sulfone prototype compounds (substantia nigra GFAP) | number of hippocampus microglial cells with CD11b positive expression compared with the styryl sulfone prototype compounds (hippocampus CD11b)
Cc1ccc(N2CCN(C(=O)Oc3ccc(/C=C/S(=O)(=O)CCCC(c4ccc(OC(=O)CN(C)C)cc4)N(C)C)cc3OC(=O)N(C)c3ccccc3)CC2)cc1 (stereo not shown) [Compound P1-1, (E)-4-{2-[4-(dimethylamino)-4-(4-(N,N-dimethylglycyloxy)phenyl)butylsulfonyl]ethenyl}-2-(N-methyl-N-phenylcarbamoyloxy)phenyl-4-(p-methylphenyl)piperazine-1-carboxylate] | 75.3 ± 3.12 | 86.6 ± 2.39 | 92.2 ± 3.05 | 182.99 ± 12.70 | 73 ± 6 | 88.13 ± 3.43 | 7 ± 2 | – | – | – | – | – | –
CCN(CC)C(=O)Oc1ccc(/C=C/S(=O)(=O)Cc2ccc(Cl)cc2)cc1OC(=O)N(CC)CC [Compound D1-1, (E)-4-{2-[(4-chlorophenyl)mesyl]ethenyl}-1,2-phenylenebis(diethylcarbamate)] | – | – | – | 42.52 ± 5.43 | 64 ± 3 | 99.19 ± 3.67 | 7 ± 1 | 80.3 ± 2.67 | 94.6 ± 3.76 | 98 ± 1.32 | significantly increased | significantly lower | significantly lower
CC(C)(C)c1ccc(CS(=O)(=O)/C=C/c2ccc(O)c(O)c2)cc1 [Compound 3G, (E)-4-{2-[(4-t-butylphenyl)mesyl]ethenyl}benzene-1,2-diol, reference compound] | – | – | – | 203.66 ± 8.37 | 130 ± 6 | 76.08 ± 7.08 | 18 ± 3 | 51.4 ± 3.54 | 68.4 ± 1.89 | 71.2 ± 3.75 | – | – | –
CCN(C)C(=O)Oc1ccc(/C=C/S(=O)(=O)CC(c2ccc(-c3ccc(OC)c(OC)c3)cc2)[N+](=O)[O-])cc1OC(=O)N(C)CC (stereo not shown) [Compound M1-1, (E)-4-{2-[2-(3′,4′-dimethoxy-[1,1′-biphenyl]-4-yl)-2-nitroethylsulfonyl]ethenyl}-1,2-phenylenebis(N-ethyl-N-methylcarbamate)] | 82.4 ± 2.54 | 89.9 ± 3.67 | 95.1 ± 1.94 | 95.64 ± 9.25 | 59 ± 3 | 101.36 ± 5.21 | 5 ± 1 | – | – | – | – | – | –
CCN(CC)C(=O)Oc1ccc(/C=C/S(=O)(=O)Cc2ccc(C(C)(C)C)cc2)cc1OC(=O)N(CC)CC [Compound G1-1, (E)-4-{2-[(4-t-butylphenyl)mesyl]ethenyl}-1,2-phenylenebis(diethylcarbamate)] | – | – | – | 77.36 ± 9.15 | 76 ± 4 | 77.13 ± 7.40 | 6 ± 1 | 78.5 ± 3.59 | 85.9 ± 2.67 | 91.4 ± 1.59 | significantly increased | significantly lower | significantly lower
CC(=O)Oc1ccc(/C=C/S(=O)(=O)Cc2c(F)c(F)c(F)c(F)c2F)cc1OC(=O)NC(=O)c1ccc([N+](=O)[O-])c(C)c1 [Compound D5-4, (E)-2-[N-(3-methyl-4-nitrobenzoyl)carbamoyloxy]-4-{2-[(perfluorophenyl)mesyl]ethenyl}phenyl acetate] | – | – | – | 186.19 ± 11.02 | 97 ± 5 | 99.86 ± 6.27 | 12 ± 2 | 60.5 ± 3.19 | 73.2 ± 4.53 | 87.5 ± 2.16 | – | – | –
O=C(/C=C/c1ccc(O)c(O)c1)OCCc1ccccc1 [Positive control group, caffeic acid phenethyl ester, reference compound] | – | – | – | 202.07 ± 8.34 | 132 ± 8 | 79.21 ± 6.59 | 24 ± 2 | 55 ± 3.78 | 67.1 ± 2.98 | 82.6 ± 2.13 | – | – | –
